Results on five compounds are retold here after ChEMBL document CHEMBL5532639, “Heterocyclic pyrimidine derivatives as promising antibacterial agents” (Eur J Med Chem, 2023).

Assay [1] deals with Escherichia coli. As to the kind of experiment: Antibacterial activity against Escherichia coli assessed as reduction in bacterial growth. Format: functional.
Assay [2] deals with Pseudomonas aeruginosa. The experiment in a line: Antibacterial activity against Pseudomonas aeruginosa assessed as reduction in bacterial growth. Format: functional.
Assay [3] has as its system Staphylococcus aureus. As to the kind of experiment: Antibacterial activity against Staphylococcus aureus assessed as reduction in microbial growth. Format: functional.
The subject of the next assay is Klebsiella sp. As to the kind of experiment: Antibacterial activity against Klebsiella sp. assessed as inhibition of bacterial growth. Format: functional.
A further assay has as its system Salmonella typhimurium. The experiment in a line: Antimicrobial activity against Salmonella typhimurium DT104 assessed as diameter of inhibition zone incubated for 24 hrs by well diffusion assay. Format: functional, Salmonella enterica subsp. enterica serovar Typhimurium.
In a further assay the test system is Micrococcus luteus. As to the kind of experiment: Antimicrobial activity against Micrococcus luteus assessed as diameter of inhibition zone incubated for 24 hrs by well diffusion assay. Format: functional. (A growth-free zone around the sample is the usual read-out of agar diffusion tests.)
The subject of assay [4] is Pseudomonas aeruginosa. The experiment in a line: Antimicrobial activity against Pseudomonas aeruginosa assessed as diameter of inhibition zone incubated for 24 hrs by well diffusion assay. The format is functional.
Assay [5] deals with Bacillus subtilis. The experiment in a line: Antimicrobial activity against Bacillus subtilis assessed as diameter of inhibition zone incubated for 24 hrs by well diffusion assay. Format: functional.
The subject of assay [6] is Staphylococcus aureus. The experiment in a line: Antibacterial activity against Staphylococcus aureus assessed as bacterial growth inhibition. The format is functional.
Assay [7] concerns Escherichia coli. As to the kind of experiment: Antibacterial activity against Escherichia coli assessed as reduction in bacterial growth by broth microdilution method. Format: functional. In general terms: Dilution methods test growth across graded concentrations, often in twofold steps.
For assay [8], the system named is Pseudomonas aeruginosa. The experiment in a line: Antibacterial activity against Pseudomonas aeruginosa assessed as reduction in microbial growth by broth microdilution method. Format: functional.
The test system of assay [9] is Escherichia coli. The experiment in a line: Antibacterial activity Escherichia coli assessed as reduction in bacterial growth. Format: functional.
Assay [10] has as its system Pseudomonas aeruginosa. The experiment in a line: Antibacterial activity against Pseudomonas aeruginosa assessed as reduction in microbial growth after 18 hrs by MTT based broth dilution method. Format: functional.
In another assay the test system is Klebsiella pneumoniae. The experiment in a line: Antibacterial activity against Klebsiella pneumoniae assessed as reduction in bacterial growth by broth microdilution method. The format is functional.
The subject of assay [11] is Bacillus subtilis. The experiment in a line: Antibacterial activity against Bacillus subtilis assessed as reduction in bacterial cell viability by well plate method. Format: functional.
Assay [12] concerns Staphylococcus epidermidis. As to the kind of experiment: Antibacterial activity against Staphylococcus epidermidis assessed as reduction in microbial growth. Format: functional.
The next assay has as its system Streptococcus pneumoniae. As to the kind of experiment: Antibacterial activity against Streptococcus pneumoniae. Format: functional.
In assay [13] the test system is Bacillus subtilis. The experiment in a line: Antibacterial activity against Bacillus subtilis. Format: functional.
In assay [14] the test system is Staphylococcus aureus. The experiment in a line: Antibacterial activity against Staphylococcus aureus. The format is functional.
The subject of assay [15] is Pseudomonas aeruginosa. As to the kind of experiment: Antibacterial activity against Pseudomonas aeruginosa. Format: functional.
The test system of assay [16] is Escherichia coli. The experiment in a line: Antibacterial activity against Escherichia coli. The format is functional.

≈ marks a conversion by molar mass, not a printed value.

A word on the MIC: it is the least concentration at which growth counts as inhibited. Regarding `COc1ccc2cc(-c3nc4sc5c(c4c(=O)n3N)CCCC5)ccc2c1`, the MIC in the assay on Escherichia coli [1] is 12.5 µg/mL (≈ 33.1 µM); in the assay on Pseudomonas aeruginosa [2], 12.5 µg/mL (≈ 33.1 µM); with Staphylococcus aureus [3] it was 12.5 µg/mL; in the assay on Klebsiella sp., 12.5 µg/mL (≈ 33.1 µM).
For `NC(=O)N/N=C/c1ccc([N+](=O)[O-])o1` [NITROFURAZONE], the MIC in the assay on Escherichia coli [1] worked out at 12.5 µg/mL (≈ 63.1 µM); with Pseudomonas aeruginosa [2] it was 6 µg/mL (≈ 30.3 µM); with Staphylococcus aureus [3], 12.5 µg/mL; in the assay with Klebsiella sp., 12.5 µg/mL (≈ 63.1 µM).
As for `CC[C@H]1OC(=O)[C@H](C)[C@@H](O[C@H]2C[C@@](C)(OC)[C@@H](O)[C@H](C)O2)[C@H](C)[C@@H](O[C@@H]2O[C@H](C)C[C@H](N(C)C)[C@H]2O)[C@](C)(O)C[C@@H](C)C(=O)[C@H](C)[C@@H](O)[C@]1(C)O` [ERYTHROMYCIN], the “inhibition zone (IZ)” value in the assay on Salmonella typhimurium stood at 7 mm; with Micrococcus luteus, 10 mm; with Pseudomonas aeruginosa [4], 10 mm; with Bacillus subtilis [5] it was 12 mm.
Turning to `O=C1CCCC2=C1C(c1ccc(Cl)cc1)c1c(nc(-c3cc4ccccc4oc3=O)[nH]c1=O)O2` (stereo not given), the MIC in the assay on Staphylococcus aureus [6] stood at 100 µg/mL (≈ 211 µM); in the assay on Escherichia coli [7] it was 50 µg/mL (≈ 106 µM); in the assay with Pseudomonas aeruginosa [8], 100 µg/mL; in the assay on Escherichia coli [9] it was 100 µg/mL (≈ 211 µM); with Pseudomonas aeruginosa [10], 100 µg/mL; in the assay on Klebsiella pneumoniae, 100 µg/mL (≈ 211 µM). Also, the values for the MIC (with Bacillus subtilis [11]; in assay [12]) were 25 µg/mL (≈ 52.9 µM) and 50 µg/mL, respectively.
As for `O=c1[nH]c(=S)[nH]c2nc(-c3ccc(Cl)cc3)cc(-c3ccccc3)c12`, the MIC in the assay with Streptococcus pneumoniae is 0.98 µg/mL (≈ 2.68 µM); against Bacillus subtilis [13] it was 1.95 µg/mL (≈ 5.33 µM); against Staphylococcus aureus [14], 3.9 µg/mL (≈ 10.7 µM); in the assay on Pseudomonas aeruginosa [15], 3.9 µg/mL (≈ 10.7 µM); in the assay with Escherichia coli [16] it was 0.98 µg/mL (≈ 2.68 µM).
